For orientation: IC50 means the concentration that gives 50% inhibition. For orientation: inhibition means the percentage by which the read-out fell short of the control. For orientation: AUC(0-t) means the area under the concentration-time curve up to a stated or last time point.

Data on 6 compounds can be found in ChEMBL document CHEMBL3085750, “Discovery of 2-methylpyridine-based biaryl amides as γ-secretase modulators for the treatment of Alzheimer's disease” (Bioorg Med Chem Lett, 2013).

Series [1] is described as follows: Metabolic stability in human liver microsomes at 1 uM after 30 mins. The class given is ADME. The settings on record: read-out: Stability.
The target of series [2] is Cytochrome P450 3A4 (Homo sapiens, UniProt P08684). As to the kind of experiment: Inhibition of CYP3A4 (unknown origin) after 5 mins. In kind it is ADME.
Sequence of Cytochrome P450 3A4 (P08684 whole entry): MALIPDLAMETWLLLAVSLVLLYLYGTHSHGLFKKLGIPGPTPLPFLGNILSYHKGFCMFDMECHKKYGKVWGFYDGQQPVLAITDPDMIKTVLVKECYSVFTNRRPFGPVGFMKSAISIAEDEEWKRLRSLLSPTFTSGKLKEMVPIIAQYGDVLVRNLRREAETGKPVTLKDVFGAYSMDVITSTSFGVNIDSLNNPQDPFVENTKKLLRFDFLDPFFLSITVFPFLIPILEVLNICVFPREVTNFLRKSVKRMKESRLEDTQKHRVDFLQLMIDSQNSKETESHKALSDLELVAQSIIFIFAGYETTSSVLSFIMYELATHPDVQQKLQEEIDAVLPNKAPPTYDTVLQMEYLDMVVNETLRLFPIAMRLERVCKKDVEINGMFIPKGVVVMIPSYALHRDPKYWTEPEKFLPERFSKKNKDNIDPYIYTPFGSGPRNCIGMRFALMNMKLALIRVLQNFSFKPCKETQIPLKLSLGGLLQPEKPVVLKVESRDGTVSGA
Series [3] has as its target Cytochrome P450 2D6 (Homo sapiens, UniProt P10635). As to the kind of experiment: Inhibition of CYP2D6 (unknown origin) after 10 mins. In kind it is ADME.
Series [4] deals with Gamma-secretase. As to the kind of experiment: Modulation of gamma-secretase in HEK293 cells expressing guinea pig Swedish mutant SFV-APP695sw assessed as inhibition of amyloid beta-42 production after 16 to 18 hrs by HTRF assay. The class given is cell-based, Homo sapiens. (In general: TR-FRET usually uses a lanthanide donor and a delayed reading to cut background.)
Series [5] concerns the target Gamma-secretase (Homo sapiens) (UniProt Q96BI3+Q9NZ42+Q8WW43+P49768+Q92542+P49810). As to the kind of experiment: Modulation of gamma-secretase in HEK293 cells expressing guinea pig Swedish mutant SFV-APP695sw assessed as inhibition of amyloid beta-42 production at 10 uM after 16 to 18 hrs by HTRF assay relative to control. The class given is cell-based.
The nature of series [6]: Metabolic stability in rat liver microsomes at 1 uM after 30 mins. In kind it is ADME. The settings on record: read-out: Stability. On the technique in general: Liver microsomes are vesicles of endoplasmic reticulum, rich in cytochrome P450 enzymes.
Series [7] is described as follows: AUC (0 to 24 hrs) in Sprague-Dawley rat at 3 mg/kg at day 4. The arrangement: time < 24 hr, dose 3 mg/kg. The settings on record: plasma. The class given is ADME, organism-based.
The test system of series [8] is Rattus norvegicus. As to the kind of experiment: Toxicity in Sprague-Dawley rat assessed as thymic cortical lymphoid depletion at 1 to 3 mg/kg after 4 days by light microscopic analysis. The class given is organism-based. The arrangement: dose 1-3 mg/kg. Conditions: in vivo, 96 h.
Series [9] has as its system Rattus norvegicus. Kind of series: Toxicity in Sprague-Dawley rat assessed as increase in neutrophils and monocytes in peripheral blood at 1 to 3 mg/kg after 4 days by light microscopic analysis. The class given is organism-based. Conditions: in vivo, 96 h. The arrangement: dose 1-3 mg/kg.
The test system of series [10] is Rattus norvegicus. Kind of series: Toxicity in Sprague-Dawley rat assessed as marginal zone lymphoid depletion in spleen at 1 to 3 mg/kg after 4 days by light microscopic analysis. In kind it is organism-based. More on the design: dose 1-3 mg/kg. Conditions: in vivo, 96 h.
The test system of series [11] is Rattus norvegicus. Kind of series: Reduction of amyloid beta-42 level in Sprague-Dawley rat CSF at 3 mg/kg after 4 hrs by immunoassay relative to control. The class given is functional. More on the design: scale not given: the % may be the effect or the level left.
For series [12], the system named is Rattus norvegicus. As to the kind of experiment: Reduction of amyloid beta-42 level in Sprague-Dawley rat CSF at 3 mg/kg after 24 hrs by immunoassay relative to control. In kind it is functional. The arrangement: scale not given: the % may be the effect or the level left.
A short description of series [13]: Plasma protein binding in Sprague-Dawley rat. The settings on record: read-out: PPB (converted). The class given is ADME, cell-free.
For series [14], the system named is Rattus norvegicus. As to the kind of experiment: Toxicity in Sprague-Dawley rat assessed as thickening of hypertrophic zone of tibial physis at 1 to 3 mg/kg after 4 days by light microscopic analysis. The arrangement: dose 1-3 mg/kg. In kind it is organism-based. Conditions: in vivo, 96 h.
Series [15] deals with Plasma. Kind of series: Unbound plasma concentration in Sprague-Dawley rat. In kind it is ADME, cell-free.
For series [16], the system named is Plasma. Kind of series: Unbound plasma concentration in Sprague-Dawley rat at 1 mg/kg. Conditions: in vivo. In kind it is ADME, organism-based. The arrangement: dose 1 mg/kg.
Series [17] deals with Rattus norvegicus. As to the kind of experiment: Toxicity in Sprague-Dawley rat assessed as increased goblet cell numbers in colon at 1 to 3 mg/kg after 4 days by light microscopic analysis. The class given is organism-based. More on the design: dose 1-3 mg/kg. The settings on record: in vivo, 96 h.
Series [18] can be described thus: AUC (0 to 24 hrs) in Sprague-Dawley rat at 3 mg/kg at day 1. In kind it is ADME, organism-based. Conditions: plasma. The arrangement: time < 24 hr, dose 3 mg/kg.
Series [19] deals with Rattus norvegicus. As to the kind of experiment: Toxicity in Sprague-Dawley rat assessed as increased goblet cell numbers in duodenum at 1 to 3 mg/kg after 4 days by light microscopic analysis. The settings on record: in vivo, other, 96 h. In kind it is organism-based. The arrangement: dose 1-3 mg/kg.
Series [20] concerns Rattus norvegicus. Kind of series: Reduction of amyloid beta-42 level in Sprague-Dawley rat CSF at 1 mg/kg after 4 hrs by immunoassay relative to control. The class given is functional. The arrangement: scale not given: the % may be the effect or the level left.
Series [21] deals with Rattus norvegicus. Kind of series: Toxicity in Sprague-Dawley rat assessed as presence of mixed inflammatory infiltrate with mild villus blunting and fusion in duodenum at 1 to 3 mg/kg after 4 days by light microscopic analysis. In kind it is organism-based. More on the design: dose 1-3 mg/kg. Conditions: in vivo, other, 96 h.
Series [22] in a line: Ratio of drug level in brain to plasma in mouse at 10 mg/kg, po after 2 hrs. The settings on record: read-out: BPR. The arrangement: dose 10 mg/kg, route oral. The class given is ADME, organism-based.

Sequence of Cytochrome P450 2D6 (P10635 whole entry): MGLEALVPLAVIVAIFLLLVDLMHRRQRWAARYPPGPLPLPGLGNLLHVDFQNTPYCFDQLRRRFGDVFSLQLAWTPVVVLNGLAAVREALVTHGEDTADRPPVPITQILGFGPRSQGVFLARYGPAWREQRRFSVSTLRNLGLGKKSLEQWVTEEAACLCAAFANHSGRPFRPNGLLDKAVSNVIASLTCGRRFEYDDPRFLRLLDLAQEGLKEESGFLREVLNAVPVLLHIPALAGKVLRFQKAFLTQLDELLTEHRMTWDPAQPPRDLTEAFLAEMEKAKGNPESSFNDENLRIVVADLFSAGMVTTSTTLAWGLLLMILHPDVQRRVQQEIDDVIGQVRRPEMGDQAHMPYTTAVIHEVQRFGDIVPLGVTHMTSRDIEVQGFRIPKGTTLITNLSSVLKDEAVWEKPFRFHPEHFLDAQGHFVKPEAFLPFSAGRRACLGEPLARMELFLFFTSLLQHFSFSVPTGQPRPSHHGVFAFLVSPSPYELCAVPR

In the case of `Cc1cc(-c2ccc(NC(=O)c3cc(C(F)(F)F)cc(C(F)(F)F)c3)cc2)ccn1`, the microsomal CLint at 1 µM is 106 µL/min/mg in [1] and 14 µL/min/mg in [6]. Further, the values for the IC50 in [2], in [3] and in series [4] were above 27000 nM, above 27000 nM and above 10000 nM, respectively. The inhibition in [5] was 58%.
Regarding `C[C@H](NC(=O)[C@@H](O)c1cc(F)cc(F)c1)C(=O)N[C@@H]1C(=O)N(C)c2ccccc2-c2ccccc21`, the AUC(0-t) at 24 h in series [7] came out at 144 ng·h/mL; in series [18], 386 ng·h/mL. The Activity result in [8] is “Toxic”; in [9], “Toxic”; in series [10], “Toxic”; in [11], 66%; in series [12] it was 37%; in series [14] it was “Toxic”. Besides, the Activity result in [17] is “Toxic”; in series [19], “Toxic”; in series [20], 33%; in series [21], “Toxic”. Further, the fraction unbound in series [13] is 0.053. Also, the entries for the “Cp(f)” value in series [15] and in series [16] were 1.2 nM and 0.4 nM, respectively.
Consider `O=S(=O)(Nc1ccc(-c2cnco2)cc1)c1cc(Cl)cc(Cl)c1`, for which the microsomal CLint at 1 µM came to 32 µL/min/mg in series [1] and 166 µL/min/mg in series [6]. The IC50 in [2] was found to be 1600 nM; in series [3], 2900 nM; in series [4], 1540 nM. The Kp at 2 h in series [22] turned out to be 0.03.
With `O=S(=O)(Nc1ccc(-c2ccncc2)cc1)c1cc(Cl)cc(Cl)c1`, the results for the microsomal CLint at 1 µM in [1] and in series [6] were 35 µL/min/mg and 85 µL/min/mg, respectively. Besides, the IC50 was 600 nM in [2], 200 nM in [3] and 2750 nM in series [4]. Moreover, the Kp at 2 h in series [22] is 0.09.
For `O=S(=O)(Nc1ccc(-n2ccnc2)cc1)c1cc(Cl)cc(Cl)c1`, the microsomal CLint at 1 µM in [1] and in series [6] was below 14 µL/min/mg in each case. Besides, the concentration for half-maximal inhibition (IC50) in [2] was found to be 100 nM; in series [3], 100 nM; in series [4] it was 2100 nM. In [22], the Kp at 2 h stood at 0.07.
Turning to `Cc1cc(-c2ccc(NC(=O)c3cc(Cl)cc(Cl)c3)cc2)ccn1`, the microsomal CLint at 1 µM in series [1] was found to be 91 µL/min/mg; in [6] it was 19 µL/min/mg. In addition, the IC50 in [2] was above 27000 nM; in [3], above 27000 nM; in [4], above 10000 nM. The Kp at 2 h in series [22] came to 1.46. Besides, the inhibition in series [5] amounted to 53%.
